Results published in patent publication US20230032473A1, “NAD(H) NANOPARTICLES AND METHODS OF USE” (Wisconsin Alumni Research Foundation, priority 2021, published 2023).

What was measured:
[1] = test system: LPS-stimulated BMDM; test: Pro-inflammatory cytokine levels by ELISA in LPS-stimulated BMDM; assay type: cell-based, murine; settings: LPS 100 ng/mL, 10 μM NAD(H) equivalent, 12 h
Description: Measurement of inflammation related cytokine levels. […] Twelve hours after the treatment, the cell culture media were collected to analyze the cytokine production by ELISA kits supplied by R&D Systems according to the manufacturer's instructions. Data were collected by monitoring the difference between the absorbance at 450 nm and 570 nm using the Microplate Reader.

[2] = test system: CLP-induced sepsis with P. aeruginosa secondary infection; test: Cecal ligation and puncture (CLP) and P. aeruginosa secondary infection model; assay type: in vivo, mice
Description: Cecal ligation and puncture (CLP) and P. aeruginosa secondary infection model. Mice were anesthetized with isoflurane. Thereafter, the abdominal cavity was opened with a midline incision to expose the cecum. The distal 50% of the cecum was ligated with a 6-0 silk suture and perforated with a 19-gauge needle twice. Subsequently, a small amount of feces was squeezed out and spread around the cecum. The cecum was relocated into the peritoneal cavity, and the laparotomy site was closed, followed by subcutaneous injection of 1 mL resuscitative prewarmed sterile saline (Dawulieti, J. et al. Treatment of severe sepsis with nanoparticulate cell-free DNA scavengers. Science advances 6, eaay7148 (2020)). This level of injury was utilized to create a prolonged infection that impaired immune system and induced approximate 30% mortality. Two injections of free NAD^+ (20 mg/kg per injection), LP-CaP, or NAD^+-LP-CaP (an equivalent dose of NAD^+20 mg/kg per injection) were given through tail vein 6 h and 24 h after the surgery. […] Mice survival and body weight were recorded over time and presented using Kaplan—Meier curves (n=14). […] The CLP mice were monitored twice daily and their conditions were evaluated using a sepsis scoring sheet. […]

NC(=O)C1=CN([C@@H]2O[C@H](COP(=O)([O-])OP(=O)([O-])OC[C@H]3O[C@@H](n4cnc5c(N)ncnc54)[C@H](O)[C@@H]3O)[C@@H](O)[C@H]2O)C=CC1.[Na+].[Na+] [NADH, β-Nicotinamide adenine dinucleotide, reduced disodium salt]
production of IL-6 [1]: did not affect
production of TNF-α [1]: did not affect

NC(=O)C1=CN([C@@H]2O[C@H](COP(=O)(O)OP(=O)(O)OC[C@H]3O[C@@H](n4cnc5c(N)ncnc54)[C@H](O)[C@@H]3O)[C@@H](O)[C@H]2O)C=CC1 [free NAD^+, β-Nicotinamide adenine dinucleotide]
survival rate [2]: did not improve the survival rate
production of IL-6 [1]: did not affect
production of TNF-α [1]: did not affect
